In US20250275918A1, “LIPID COMPOSITIONS AND METHODS FOR NUCLEIC ACID DELIVERY” (GREENLIGHT BIOSCIENCES, INC., priority 2022, published 2025):

What was measured:
[1] = Hemolysis assay (endosomal escape ability of LNPs); assay type: cell-based; conditions: pH 7.4; LNPs formulated with the lipid
Method: (§1) The formulation was kept at 4° C. until used in the luciferase expression assay to evaluate LNP's potency, and for toxicity using LDH assay in the HeLa and HEK293 cells. LNPs were used in the TNS assay to determine the experimental (apparent) pKa of the ionizable lipid. Hemolysis assay was used to determine the indirect endosomal escape (EE) capability of the LNPs. LNPs were evaluated in vivo for luciferase expression 6 h and 24 h post-dose in mice through i.m. injection at […]. Mice were sacrificed at the end point and then organs were harvested for ex-vivo imaging.
FIG. 6 illustrates endosomal escape ability of LNPs formulated using the ionizable lipids using a hemolysis assay.

Hek 293 FT cells = experiment: LDH toxicity assay; assay type: cell-based; conditions: two separate batches
Method: GILP-133 was tested in an assay to measure the level of lactate dehydrogenase (LDH), also known as lactic acid dehydrogenase. The LDH assay protocol is based on an enzymatic coupling reaction: LDH released from the cell oxidizes lactate to generate NADH, which then reacts with WST to generate a yellow color. The intensity of the generated color correlates directly with the number of lysed cells. This gives an indication of cytotoxicity, looking at the % of viable cells remaining. In this testing, Hek 293 FT cells were used 10 uL 1% Triton was added to positive control wells and incubated for 5 min. 50 uL cell culture medium was transferred to black 96-well plate. 50 uL LDH assay solution is added and incubated for 10 min at room temperature. Subsequently 50 ul stop solution was added and fluorescence intensity was read using a microplate reader.

mice = experiment: Animal luciferase expression study, intramuscular injection, IVIS imaging; assay type: in vivo; conditions: i.m., 5 μg of mRNA per mouse, organs at 24 h, compared to all GIL-133 formulations
Method: as §1
These samples were injected to mice through intramuscular injection at the leg site at a dose of 5 μg of mRNA per mouse. Compositions with control LNP of FIG. 7 were used as positive control. At 6 h and 24 h post injection, the mice were subjected to IVIS imaging system to take the whole-body image. […] The same trend was found in the whole-body imaging results.
At 24 h, the mice were sacrificed, and the main organs include heart, liver, spleen, lung, kidneys, muscle, dLNs and ndLNs were collected and imaged. […] All results are shown in 11A, 11B, 11C, 11D, and 11E.

CCCCCCCCC(CCCCCC)C(=O)OCCCCCCCN(C)CCCN(C)CCCCCCCOC(=O)C(CCCCCC)CCCCCCCC (centres unmarked) [GILP-124, (propane-1,3-diylbis(methylazanediyl))bis(heptane-7,1-diyl)bis(2-hexyldecanoate)]
hemolysis at neutral pH [1]: negligible hemolysis

CCCCCCCCC(CCCCCC)C(=O)OCCCCCCCN(CC)CCCN(CC)CCCCCCCOC(=O)C(CCCCCC)CCCCCCCC (centres unmarked) [GILP-126, (propane-1,3-diylbis(ethylazanediyl))bis(heptane-7,1-diyl)bis(2-hexyldecanoate)]
hemolysis at neutral pH [1]: negligible hemolysis

CCCCCCCCC(CCCCCC)C(=O)OCCCCCCCN(C)[C@@H]1CCCC[C@H]1N(C)CCCCCCCOC(=O)C(CCCCCC)CCCCCCCC (stereo partly drawn) [GILP-133, (((1R,2S)-cyclohexane-1,2-diyl)bis(methylazanediyl))bis(heptane-7,1-diyl)bis(2-hexyldecanoate)]
% cell viability compared to control cationic lipid of FIG. 7 (Hek 293 FT cells): equivalent % cell viability

CCCCCCCCCCCOC(=O)CCCCCN(CCO)CCCCCCCC(=O)OC(CCCCCCCC)CCCCCCCC [positive control, heptadecan-9-yl 8-[2-hydroxyethyl-(6-oxo-6-undecoxyhexyl)amino]octanoate]
luciferase expression in ndLNs (mice): higher level of luciferase expression
luciferase expression in spleen (mice): higher level of luciferase expression
